Where a name gives a salt, the structure may show the parent alone.
Legend:
KATO III = assay: MTS assay, KATO III; assay type: cell-based
Description: (§1) Cells were maintained at 37° C., 5% CO2 in DMEM media supplemented with 1% fetal bovine serum, penicillin/streptomycin and fungizone (Invitrogen). Cells were seeded into 96-well tissue culture plates at 3000 per well and cultured at 37° C. for 18 hours. Test compounds were dissolved and diluted to 300× in DMSO then diluted 1:40 in DMEM.

DLD-1 = assay: MTS cell kill, DLD-1; assay type: cell-based
Description: as §1

MDA-MB-231 = assay: MTS cell kill, MDA-MB-231; assay type: cell-based
Description: as §1

NCI-H1299 = assay: MTS cell kill, NCI-H1299; assay type: cell-based
Description: as §1

PACA-2 = assay: MTS cell kill, PACA-2; assay type: cell-based
Description: as §1

FGFR2 kinase = molecular target: T1, FGFR2 kinase (Homo sapiens, UniProt P21802, N549H); assay: fluorescent ELISA FGFR2 kinase assay (biochemical); conditions: FGFR2 (N549H); read-out: Biochemical data (IC50-μM) FGFR2 (N549H)
T1 construct: purchased Millipore 14-742
T1 sequence (P21802 456-770 N549H limits assumed): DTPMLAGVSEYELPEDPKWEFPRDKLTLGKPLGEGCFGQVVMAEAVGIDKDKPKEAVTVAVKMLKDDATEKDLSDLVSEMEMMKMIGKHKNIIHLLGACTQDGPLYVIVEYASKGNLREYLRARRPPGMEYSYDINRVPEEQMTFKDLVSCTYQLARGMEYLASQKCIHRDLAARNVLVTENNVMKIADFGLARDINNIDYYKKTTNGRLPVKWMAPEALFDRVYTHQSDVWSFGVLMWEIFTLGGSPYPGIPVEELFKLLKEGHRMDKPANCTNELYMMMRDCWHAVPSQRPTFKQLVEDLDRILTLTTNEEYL
Description: The enzymatic assays described herein are conducted according to the following procedures from commercially available reagents. In one, non limiting, example, a fluorescent ELISA assay is used to identify and characterize inhibitors of FGFR2 kinase as described herein. This heterogeneous assay utilizes a biotinylated peptide with a tyrosine motif as a substrate and an anti-phospho-tyrosine antibody to measure phosphorylation of the substrate. […] The reaction is incubated for 60 minutes. As the reaction proceeds, FGFR2 phosphorylates tyrosines in the peptide. […] Peptides are captured for 30 minutes at room temperature, the phosphorylation of peptides continues during this phase. The reaction is stopped by washing the streptavidin-coated plate 6 times with TBST. […] Unbound anti-phospho-tyrosine antibody is removed by washing the streptavidin-coated plate 6 times with TBST. […] Unbound secondary antibody is removed by washing the streptavidin-coated plate 6 times with TBST.

SNU-16 = assay: MTS assay, SNU-16; assay type: cell-based; conditions: Homo sapiens, SNU-16, SNU-16; read-out: MTS cell kill data (IC50-μM) SNU-16
Description: as §1

With CNc1ncc2c(n1)-c1ccccc1C1(CCN(C(=O)Nc3ccc(C#N)cc3)CC1)C2 [Example 397, N-(4-cyanophenyl)-2-(methylamino)-1′H,5H-spiro[benzo[h]quinazoline-6,4′-piperidine]-1′-carboxamide] the “MTS cell kill data (% inhibition) KATO III” value (KATO III) was “A (A = 80-100% inhibition)”, the “MTS cell kill data (% inhibition) DLD-1” value (DLD-1) was “B (B = 50-79% inhibition)” and the “MTS cell kill data (% inhibition) MDA-MB-231” value (MDA-MB-231) was “B (B = 50-79% inhibition)”. The “MTS cell kill data (% inhibition) NCI-H1299” value (NCI-H1299) was “C (C = <50% inhibition)” and the “MTS cell kill data (% inhibition) PACA-2” value (PACA-2) was “A (A = 80-100% inhibition)”.

Work on COCCN1CCN(CCc2ccc(Nc3ncc4c(n3)-c3ccccc3[C@H](c3ccc(Cl)c(Cl)c3)C4)cc2)CC1 [Example 115, (S)-6-(3,4-dichlorophenyl)-N-(4-(2-(4-(2-methoxyethyl)piperazin-1-yl)ethyl)phenyl)-5,6-dihydrobenzo[h]quinazolin-2-amine hydrochloride] yielded an IC50 (FGFR2 kinase) of 0.211 µM and an IC50 (SNU-16) of 3.03 µM.

With CNc1ncc2c(n1)-c1ccccc1C1(CCN(C(=O)Nc3ccc(Oc4ccccc4)cc3)CC1)C2 [Example 406, 2-(methylamino)-N-(4-phenoxyphenyl)-1′H,5H-spiro[benzo[h]quinazoline-6,4′-piperidine]-1′-carboxamide] the “MTS cell kill data (% inhibition) KATO III” value (KATO III) was “A (A = 80-100% inhibition)”, the “MTS cell kill data (% inhibition) DLD-1” value (DLD-1) was “A (A = 80-100% inhibition)” and the “MTS cell kill data (% inhibition) MDA-MB-231” value (MDA-MB-231) was “A (A = 80-100% inhibition)”. The “MTS cell kill data (% inhibition) NCI-H1299” value (NCI-H1299) was “A (A = 80-100% inhibition)” and the “MTS cell kill data (% inhibition) PACA-2” value (PACA-2) was “A (A = 80-100% inhibition)”.

COCCNCCc1cc(Nc2ncc3c(n2)-c2ccccc2[C@H](c2ccccc2F)C3)ccc1F [Example 173, (R)-N-(4-fluoro-3-(2-(2-methoxyethylamino)ethyl)phenyl)-6-(2-fluorophenyl)-5,6-dihydrobenzo[h]quinazolin-2-amine hydrochloride salt] gave an IC50 (FGFR2 kinase) of 0.0359 µM and an IC50 (SNU-16) of 0.519 µM.

With CCCCNCCc1cc(Nc2ncc3c(n2)-c2ccccc2[C@H](c2ccccc2F)C3)ccc1F [Example 171, (R)-N-(3-(2-(butylamino)ethyl)-4-fluorophenyl)-6-(2-fluorophenyl)-5,6-dihydrobenzo[h]quinazolin-2-amine hydrochloride salt] the IC50 (FGFR2 kinase) was 0.0355 µM.

For Brc1ccc([C@@H]2Cc3cnc(Nc4ccc(CCN5CCCCC5)cc4)nc3-c3ccccc32)cc1 [Example 103, (S)-6-(4-bromophenyl)-N-(4-(2-(piperidin-1-yl)ethyl)phenyl)-5,6-dihydrobenzo[h]quinazolin-2-amine hydrochloride salt], the IC50 (FGFR2 kinase) was 0.178 µM and the IC50 (SNU-16) was 3.57 µM.

With Cc1ccc(CNc2ccc(C3Cc4cnc(NCCCN5CCN(C)CC5)nc4-c4ccccc43)cc2)c(C)c1 (stereo not drawn) [Example 571, 6-{4-[(2,4-dimethylbenzyl)amino]phenyl}-N-[3-(4-methylpiperazin-1-yl)propyl]-5,6-dihydrobenzo[h]quinazolin-2-amine] the “MTS cell kill data (% inhibition) KATO III” value (KATO III) was “A (A = 80-100% inhibition)”, the “MTS cell kill data (% inhibition) DLD-1” value (DLD-1) was “A (A = 80-100% inhibition)” and the “MTS cell kill data (% inhibition) MDA-MB-231” value (MDA-MB-231) was “A (A = 80-100% inhibition)”. For the same compound, the “MTS cell kill data (% inhibition) NCI-H1299” value (NCI-H1299) was “A (A = 80-100% inhibition)” and the “MTS cell kill data (% inhibition) PACA-2” value (PACA-2) was “A (A = 80-100% inhibition)”.

CN(CCc1ccc(Nc2ncc3c(n2)-c2ccccc2[C@H](c2ccc(F)cc2)C3)cc1)C1CCCCC1 [Example 102, (S)-N-(4-(2-(cyclohexyl(methyl)amino)ethyl)phenyl)-6-(4-fluorophenyl)-5,6-dihydrobenzo[h]quinazolin-2-amine] showed an IC50 (FGFR2 kinase) of 0.26 µM and an IC50 (SNU-16) of 3.22 µM.

For CCCc1ccc(CNc2ccc(C3Cc4cnc(NCCCN5CCN(C)CC5)nc4-c4ccccc43)cc2)cc1 (stereo not drawn) [Example 569, N-[3-(4-methylpiperazin-1-yl)propyl]-6-{4-[(4-propylbenzyl)amino]phenyl}-5,6-dihydrobenzo[h]quinazolin-2-amine], the “MTS cell kill data (% inhibition) KATO III” value (KATO III) was “A (A = 80-100% inhibition)”, the “MTS cell kill data (% inhibition) DLD-1” value (DLD-1) was “A (A = 80-100% inhibition)” and the “MTS cell kill data (% inhibition) MDA-MB-231” value (MDA-MB-231) was “A (A = 80-100% inhibition)”. For the same compound, the “MTS cell kill data (% inhibition) NCI-H1299” value (NCI-H1299) was “A (A = 80-100% inhibition)” and the “MTS cell kill data (% inhibition) PACA-2” value (PACA-2) was “A (A = 80-100% inhibition)”.

With CCCCN(C)CCc1cc(Nc2ncc3c(n2)-c2ccccc2[C@H](c2ccccc2F)C3)ccc1F [Example 172, (R)-N-(3-(2-(butyl(methyl)amino)ethyl)-4-fluorophenyl)-6-(2-fluorophenyl)-5,6-dihydrobenzo[h]quinazolin-2-amine hydrochloride salt] the IC50 (FGFR2 kinase) was 0.0922 µM.

In the case of OCCc1cc(Nc2ncc3c(n2)-c2ccccc2[C@H](c2ccccc2F)C3)ccc1F [Example 169], the IC50 (FGFR2 kinase) is reported as 0.327 µM.

COCCN1CCN(CCc2ccc(Nc3ncc4c(n3)-c3ccccc3[C@H](c3cccc(Br)c3)C4)cc2)CC1 [Example 77, (S)-6-(3-bromophenyl)-N-(4-(2-(4-(2-methoxyethyl)piperazin-1-yl)ethyl)phenyl)-5,6-dihydrobenzo[h]quinazolin-2-amine hydrochloride] showed an IC50 (FGFR2 kinase) of 0.118 µM and an IC50 (SNU-16) of 4.47 µM.

In the case of Fc1ccc([C@@H]2Cc3cnc(Nc4ccc(CCN5CCCCC5)cc4)nc3-c3ccccc32)cc1 [Example 101, (S)-6-(4-fluorophenyl)-N-(4-(2-(piperidin-1-yl)ethyl)phenyl)-5,6-dihydrobenzo[h]quinazolin-2-amine], the IC50 (FGFR2 kinase) is reported as 0.177 µM, the IC50 (SNU-16) is reported as 4.03 µM and the melting point is reported as 185 to 188 °C.

Compound OCc1cccc(Nc2ncc3c(n2)-c2ccccc2[C@H](c2ccccc2F)C3)c1 [Example 176, (R)-(3-(6-(2-fluorophenyl)-5,6-dihydrobenzo[h]quinazolin-2-ylamino)phenyl)methanol] has an IC50 (FGFR2 kinase) of 0.109 µM and a melting point of 158 to 159 °C.

In the case of Cc1ccc(F)c(CNc2ccc(C3Cc4cnc(NCCCN5CCN(C)CC5)nc4-c4ccccc43)cc2)c1 (stereo not drawn) [Example 570, 6-{4-[(2-fluoro-5-methylbenzyl)amino]phenyl}-N-[3-(4-methylpiperazin-1-yl)propyl]-5,6-dihydrobenzo[h]quinazolin-2-amine], the “MTS cell kill data (% inhibition) KATO III” value (KATO III) is reported as “A (A = 80-100% inhibition)”, the “MTS cell kill data (% inhibition) DLD-1” value (DLD-1) is reported as “A (A = 80-100% inhibition)” and the “MTS cell kill data (% inhibition) MDA-MB-231” value (MDA-MB-231) is reported as “A (A = 80-100% inhibition)”. For the same compound, the “MTS cell kill data (% inhibition) NCI-H1299” value (NCI-H1299) was “A (A = 80-100% inhibition)” and the “MTS cell kill data (% inhibition) PACA-2” value (PACA-2) was “A (A = 80-100% inhibition)”.

For CN1CCN(CCCNc2ncc3c(n2)-c2ccccc2C(c2ccc(NCc4cccc5cc[nH]c45)cc2)C3)CC1 (stereo not drawn) [Example 573, 6-{4-[(1H-indol-7-ylmethyl)amino]phenyl}-N-[3-(4-methylpiperazin-1-yl)propyl]-5,6-dihydrobenzo[h]quinazolin-2-amine], the “MTS cell kill data (% inhibition) KATO III” value (KATO III) was “A (A = 80-100% inhibition)”, the “MTS cell kill data (% inhibition) DLD-1” value (DLD-1) was “A (A = 80-100% inhibition)” and the “MTS cell kill data (% inhibition) MDA-MB-231” value (MDA-MB-231) was “A (A = 80-100% inhibition)”. For the same compound, the “MTS cell kill data (% inhibition) NCI-H1299” value (NCI-H1299) was “A (A = 80-100% inhibition)” and the “MTS cell kill data (% inhibition) PACA-2” value (PACA-2) was “A (A = 80-100% inhibition)”.

CN(CCc1ccccc1)CCc1ccc(Nc2ncc3c(n2)-c2ccccc2[C@H](c2ccccc2F)C3)cc1 [Example 93, (R)-6-(2-fluorophenyl)-N-(4-(2-(methyl(phenethyl)amino)ethyl)phenyl)-5,6-dihydrobenzo[h]quinazolin-2-amine hydrochloride salt] showed an IC50 (FGFR2 kinase) of 0.296 µM and an IC50 (SNU-16) of 3.25 µM.

For COCCNCCc1ccc(Nc2ncc3c(n2)-c2ccccc2[C@H](c2ccccc2F)C3)cc1 [Example 94, (R)-6-(2-fluorophenyl)-N-(4-(2-(2-methoxyethylamino)ethyl)phenyl)-5,6-dihydrobenzo[h]quinazolin-2-amine hydrochloride salt], the IC50 (FGFR2 kinase) was 0.00999 µM and the IC50 (SNU-16) was 0.895 µM.

For Brc1ccc([C@H]2Cc3cnc(Nc4ccc(CCN5CCCCC5)cc4)nc3-c3ccccc32)cc1 [Example 108, (R)-6-(4-bromophenyl)-N-(4-(2-(piperidin-1-yl)ethyl)phenyl)-5,6-dihydrobenzo[h]quinazolin-2-amine hydrochloride salt], the IC50 (FGFR2 kinase) was 0.354 µM.

In the case of CN(CCc1ccc(Nc2ncc3c(n2)-c2ccccc2[C@H](c2ccccc2F)C3)cc1)C1CCCCC1 [Example 95, (R)-N-(4-(2-(cyclohexyl(methyl)amino)ethyl)phenyl)-6-(2-fluorophenyl)-5,6-dihydrobenzo[h]quinazolin-2-amine], the IC50 (FGFR2 kinase) is reported as 0.24 µM and the IC50 (SNU-16) is reported as 1.13 µM.

With CCCCN(C)CCc1ccc(Nc2ncc3c(n2)-c2ccccc2[C@H](c2ccc(Cl)c(Cl)c2)C3)cc1 [Example 105, (S)-N-(4-(2-(butyl(methyl)amino)ethyl)phenyl)-6-(3,4-dichlorophenyl)-5,6-dihydrobenzo[h]quinazolin-2-amine hydrochloride salt] the IC50 (FGFR2 kinase) was 0.499 µM and the IC50 (SNU-16) was 5.03 µM.

Compound CCCCN(C)CCc1ccc(Nc2ncc3c(n2)-c2ccccc2[C@@H](c2ccc(Br)cc2)C3)cc1 [Example 107, (R)-6-(4-bromophenyl)-N-(4-(2-(butyl(methyl)amino)ethyl)phenyl)-5,6-dihydrobenzo[h]quinazolin-2-amine hydrochloride salt] has an IC50 (FGFR2 kinase) of 0.423 µM.

Compound COCCNCCc1ccc(Nc2ncc3c(n2)-c2ccccc2[C@H](c2ccc(F)c(F)c2)C3)cc1 [Example 86, (S)-6-(3,4-difluorophenyl)-N-(4-(2-(2-methoxyethylamino)ethyl)phenyl)-5,6-dihydrobenzo[h]quinazolin-2-amine hydrochloride] has an IC50 (FGFR2 kinase) of 0.267 µM and an IC50 (SNU-16) of 5.13 µM.

— patent publication US8357694B2, “Substituted 5,6-dihydro-6-phenylbenzo[F]isoquinolin-2-amine compounds” (ArQule, Inc., priority 2008, dated 2013)
